Data on 21 compounds can be found in patent publication US4418065A, “Halophenyl-pyridyl-allylamine derivatives and use” (priority 1979, dated 1983).

Counter-ions that a name gives are not always drawn. Like-named read-outs stand apart in the source and are kept apart here. Where only a bound is given, the exact number is not on record here.

The test system of test [1] is neuronal uptake of noradrenaline. Description: Inhibition of the uptake of ^3 H-NA in vivo (i.p. administration, hypothalamus slices). On the set-up: species or system mouse. To be noted: for ED50: Mus musculus, ip, 0.5 h, read-out: Uptake of ^3 H-NA in vivo ED50; for Percentage inhibition of ^3 H-NA uptake at the highest dose examined: in vivo, at the highest dose examined (the > value, μmole/kg). The procedure: (§1) The test substances were administered intraperitoneally half an hour before the animals were killed. […] The incubation time was 5 minutes with 5 minutes of preincubation before the labelled amines were added. The slices were dissolved in Soluene® and the amounts of radioactive amines taken up were determined by liquid scintillation. […] Active uptake is defined as that part of the radioactive uptake which is inhibited by a high concentration of cocaine.

Test [2] relates to neuronal uptake of 5-hydroxytryptamine. Description: Inhibition of the uptake of ^14 C-5-HT in vivo (i.p. administration, hypothalamus slices). On the set-up: species or system mouse. Particulars: for ED50: Mus musculus, ip, 0.5 h, read-out: Uptake of ^14 C-5-HT in vivo ED50; for Percentage inhibition of ^14 C-5-HT uptake at the highest dose examined: in vivo, at the highest dose examined (the > value, μmole/kg). How it is done: as §1

The test system is the same in test [3]. Description: Inhibition of the uptake of ^14 C-5-HT in vitro (slices of mouse midbrain). The test is classed as biochemical. Particulars: for EC50: in vitro, mouse brain slices, 1×10^-7 M ^14 C-5-HT, 5 min. The procedure:
as §1
(§2) In the in vitro method slices of mouse midbrain were preincubated for 5 minutes with solution of the compound to be tested and then incubated as described above.

The subject of test [4] is neuronal uptake of noradrenaline. Put plainly: Inhibition of the uptake of ^3 H-NA in vitro (slices of mouse midbrain). The test is classed as biochemical. To be noted: for EC50: mouse brain slices, 1×10^-7 M ^3 H-NA, 5 min. How it is done: as §1, §2
Where [5] appears, read: i.p., half an hour before the animals were killed, 50 percent decrease of active uptake.

In general, ED50 refers to the dose at which the effect has come halfway, by size or by number of responders. `CN(C)CC=C(c1cccnc1)c1ccc(Cl)cc1Cl` [2,4-di Cl CH3 E/Z 1:1, 3-(2,4-dichlorophenyl)-N,N-dimethyl-3-(3-pyridyl)-allylamine]: the median effective dose (ED50) in test [1] was 63 µmol/kg; in test [2] (setting [5]) it was 42 µmol/kg.
What is called EC50 is the midpoint of the concentration-response curve. As to `CNCC=C(c1cccnc1)c1ccc(Cl)cc1Cl` [2,4-di Cl H E/Z 1:1, 3-(2,4-dichlorophenyl)-N-methyl-3-(3-pyridyl)-allylamine], the EC50 in test [3] turned out to be 0.5 µM; in test [4] it was 0.9 µM. Moreover, the figures for the ED50 in test [1] (setting [5]) and in test [2] (setting [5]) were 82 µmol/kg and 60 µmol/kg, respectively.
Regarding `CN(C)CC=C(c1cccnc1)c1ccccc1Br` [2-Br CH3 E/Z 1:1, 3-(2-bromophenyl)-N,N-dimethyl-3-(3-pyridyl)-allylamine], the EC50 stood at 3.5 µM in test [3] and 2.2 µM in test [4]. For the same compound, the ED50 is 79 µmol/kg in test [1] (setting [5]) and over 126 µmol/kg in test [2] (setting [5]).
Regarding `CNCC=C(c1cccnc1)c1ccccc1Br` [2-Br H E/Z 1:1, 3-(2-bromophenyl)-N-methyl-3-(3-pyridyl)-allylamine], the EC50 stood at 1.5 µM in test [3] and 1.4 µM in test [4]. In addition, the ED50 in test [1] was 63 µmol/kg; in test [2] (setting [5]), over 132 µmol/kg.
On to `CN(C)C/C=C(\c1ccc(Br)cc1)c1cccnc1` [4-Br CH3 E, reference compound], for which the ED50 was 25 µmol/kg in test [1] (setting [5]) and over 98 µmol/kg in test [2] (setting [5]). Besides, the “Percentage inhibition of ^14 C-5-HT uptake at the highest dose examined” value in test [2] (i.p.) was 36%.
In the case of `CN(C)C/C=C(/c1ccc(Br)cc1)c1cccnc1` [4-Br CH3 Z, (Z)-3-(4-bromophenyl)-N,N-dimethyl-3-(3-pyridyl)allylamine, reference compound], the ED50 is over 98 µmol/kg in test [1] (setting [5]) and 49 µmol/kg in test [2] (setting [5]). Also, the “Percentage inhibition of ^3 H-NA uptake at the highest dose examined” value in test [1] (i.p.) worked out at 26%.
On to `CNC/C=C(\c1ccc(Br)cc1)c1cccnc1` [4-Br H E, reference compound], for which the figures for the ED50 in test [1] (setting [5]) and in test [2] (setting [5]) were 25 µmol/kg and 102 µmol/kg, respectively.
With `CNC/C=C(/c1ccc(Br)cc1)c1cccnc1` [4-Br H Z, reference compound], the ED50 was over 101 µmol/kg in test [1] (setting [5]) and 15 µmol/kg in test [2] (setting [5]). In addition, in test [1] (i.p.), the “Percentage inhibition of ^3 H-NA uptake at the highest dose examined” value is on record as 38%.
On to `CN(C)C/C=C(\c1cccnc1)c1cccc(Cl)c1.O=C(O)C(=O)O` [Example 1, (Z)-3-(3-chlorophenyl)-N,N-dimethyl-3-(3-pyridyl)allylamine oxalate], for which the EC50 in test [3] came out at 2.7 µM; in test [4], 10 µM. Further, the ED50 in test [1] (setting [5]) and in test [2] (setting [5]) was over 110 µmol/kg in each case. In test [1] (i.p.), the “Percentage inhibition of ^3 H-NA uptake at the highest dose examined” value amounted to 41%. The “Percentage inhibition of ^14 C-5-HT uptake at the highest dose examined” value in test [2] (i.p.) was found to be 12%.
Regarding `CN(C)C/C=C(/c1ccc(Cl)cc1)c1cccnc1` [Example 2, (Z)-3-(4-chlorophenyl)-N,N-dimethyl-3-(3-pyridyl)allylamine oxalate], the EC50 in test [3] and in test [4] was 1.1 µM throughout. The 50% effective dose (ED50) in test [1] (setting [5]) was 46 µmol/kg; in test [2] (setting [5]), 34 µmol/kg.
Turning to `CNC/C=C(/c1ccc(Cl)cc1)c1cccnc1.O=C(O)C(=O)O` [Example 3, (Z)-3-(4-Chlorophenyl)-N-methyl-3-(3-pyridyl)allylamine oxalate], the ED50 in test [1] (setting [5]) was found to be 23 µmol/kg; in test [2] (setting [5]), 19 µmol/kg.
Consider `CN(C)CC=C(c1ccc(F)cc1)c1cccnc1` [Example 4, 3-(4-Fluorophenyl)-N,N-dimethyl-3-(3-pyridyl)allylamine oxalate], for which the figures for the median effective dose (ED50) in test [1] (setting [5]) and in test [2] (setting [5]) were 72 µmol/kg and 115 µmol/kg, respectively.
For `CNCC=C(c1ccc(F)cc1)c1cccnc1` [Example 5, 3-(4-Fluorophenyl)-N-methyl-3-(3-pyridyl)allylamine oxalate], the ED50 in test [1] (setting [5]) stood at 29 µmol/kg; in test [2] (setting [5]) it was 72 µmol/kg.
With `CN(C)C/C=C(\c1cccnc1)c1ccccc1Br` [Example 6, (E)-3-(2-Bromophenyl)-N,N-dimethyl-3-(3-pyridyl)allylamine oxalate], the EC50 in test [3] amounted to 4.2 µM; in test [4], 2.2 µM. The figures for the ED50 in test [1] (setting [5]) and in test [2] (setting [5]) were 37 µmol/kg and over 98 µmol/kg, respectively.
For `CNC/C=C(\c1cccnc1)c1ccccc1Br` [Example 7, (E)-3-(2-Bromophenyl)-N-methyl-3-(3-pyridyl)allylamine oxalate], the EC50 was found to be 0.6 µM in test [3] and 0.3 µM in test [4]. Besides, the ED50 in test [1] (setting [5]) is 20 µmol/kg; in test [2] (setting [5]), 102 µmol/kg.
On to `CNC/C=C(\c1cccnc1)c1cccc(Br)c1` [Example 8, (Z)-3-(3-Bromophenyl)-N-methyl-3-(3-pyridyl)allylamine oxalate], for which the EC50 in test [3] came to 1.4 µM; in test [4], 0.9 µM. Further, the ED50 in test [1] (setting [5]) is 58 µmol/kg; in test [2] (setting [5]), over 102 µmol/kg.
As for `CN(C)C/C=C(\c1cccnc1)c1ccc(Cl)cc1Cl` [Example 9, (E)-3-(2,4-Dichlorophenyl)-N,N-dimethyl-3-(3-pyridyl)allylamine oxalate], the ED50 was over 101 µmol/kg in test [1] (setting [5]) and 43 µmol/kg in test [2] (setting [5]).
For `CNC/C=C(\c1cccnc1)c1ccc(Cl)cc1Cl` [Example 10, (E)-3-(2,4-Dichlorophenyl)-N-methyl-3-(3-pyridyl)allylamine oxalate], the values for the EC50 in test [3] and in test [4] were 0.5 µM and 2.3 µM, respectively. Moreover, the ED50 in test [1] (setting [5]) is 73 µmol/kg; in test [2] (setting [5]), 18 µmol/kg.
As to `CN(C)C/C=C(/c1ccc(I)cc1)c1cccnc1.O=C(O)C(=O)O` [Example 11, (Z)-3-(4-iodophenyl)-N,N-dimethyl-3-(3-pyridyl)allylamine oxalate], the “selectivity of the uptake inhibition (5-HT versus NA), in words” value in test [3] (5-HT versus NA uptake, brain slices) was “completely selective inhibitor of the 5-HT uptake”. Further, the EC50 is 1.3 µM in test [3] and over 22 µM in test [4]. Also, the ED50 was over 88 µmol/kg in test [1] (setting [5]) and 46 µmol/kg in test [2] (setting [5]). In addition, the “Percentage inhibition of ^3 H-NA uptake at the highest dose examined” value in test [1] (i.p.) is on record as 0%. In test [4] (at the highest concentration examined (the > value, μM)), the “Percentage inhibition of ^3 H-NA uptake at the highest concentration examined” value is recorded as 33%.
As to `CN(C)C/C=C(\c1cccnc1)c1cccc(Br)c1` [Example 12, 3-(3-Bromophenyl)-N,N-dimethyl-3-(3-pyridyl)allylamine oxalate], the ED50 was 66 µmol/kg in test [1] (setting [5]) and over 98 µmol/kg in test [2] (setting [5]).
For the compound `CN(C)CCCN1c2ccccc2CCc2ccccc21` [Imipramine, reference compound], the ED50 in test [1] turned out to be 63 µmol/kg; in test [2], 125 µmol/kg.
